Series [1] concerns multidrug-resistant COLO 320 cells. Nature of the series: Drug combination assay with doxorubicin (Chou-Talalay, MTT). The format is cell-based, human. The following applies: for CI at ED50 (combination index): combination with doxorubicin, COLO 320, 72 h, Chou-Talalay; for Interaction: interaction with doxorubicin in COLO 320, class from CI. As to the method:
One promising approach involves the discovery of new bioactive natural products. To explore this, a chemosensitivity assay was conducted to examine the in vitro interactions between the isolated compounds and the antineoplastic agent doxorubicin, a substrate of P-glycoprotein (P-gp). A combination chemotherapy model was applied using human COLO 320 colon carcinoma cells. The combination index (CI), calculated according to the Chou–Talalay method, was used to evaluate drug–drug interactions, classifying them as synergistic (CI < 1), additive (CI = 1), or antagonistic (CI > 1) (Table 4).
The multidrug-resistant COLO 320 cell line was used to perform the drug combination assay. Doxorubicin (2 mg/mL, Teva Pharmaceuticals, Budapest, Hungary) was serially diluted horizontally, starting with 8.6 µM. The resistance modifier was subsequently diluted vertically, with the starting concentration determined based on the IC50 value. Doxorubicin was diluted horizontally in 100 µL, while the resistance modifiers were diluted vertically in 50 µL in the microtiter plate. The compounds and doxorubicin were prepared as separate dilutions. The cells were seeded at a density of 6 × 10^3 cells per well into 100 µL of medium and incubated for 24 h at 37 °C in a 5% CO2 atmosphere prior to treatment. After this period, the culture medium was removed, and 50 µL of fresh medium was added to each well, followed by the addition of 50 µL of the diluted compounds, resulting in a final volume of 200 µL per well. The plates were then incubated for 72 h at 37 °C under 5% CO2. The cell viability was assessed at the end of incubation using the MTT assay, as described previously. Drug interactions were analyzed using CompuSyn software (Version 1.00).
The dose–response curves for individual agents and their combinations were fitted to a linear model based on the median-effect equation to calculate the median effective dose (IC50) and the slope (m). The quality of the fit was evaluated using the linear correlation coefficient (r), and only data with r > 0.90 are reported. The extent of drug interaction was quantified using the combination index (CI), where CI ≈ 1 indicated an additive effect, CI < 1 signified synergy, and CI > 1 denoted antagonism.

Series [2] relates to CCD-19Lu non-cancerous human lung fibroblast cells. The series can be described thus: MTT antiproliferative assay, CCD-19Lu. Format: cell-based. The conditions noted are these: 72 h, CCD-19Lu non-tumorigenic fibroblasts, read-out: IC50 (µM) ± SD CCD-19Lu. As to the method:
(§1) The antiproliferative effects of the isolated phenanthrenes (compounds 1–19) were evaluated using human cancer cell lines, including doxorubicin-sensitive colonic adenocarcinoma COLO 205 and multidrug-resistant colonic adenocarcinoma COLO 320/MDR-LRP (which expresses P-glycoprotein [MDR1] and LRP), as well as non-cancerous human lung fibroblast CCD-19Lu cells. CCD-19Lu was chosen because it is a well-characterized, non-tumorigenic cell line commonly used to assess general cytotoxicity. Moreover, data from the literature support the use of lung fibroblast cell lines—including CCD-19Lu—as normal controls in studies involving colon cancer cells such as Colo 205 and Colo 320 [33]. The thiazolyl blue tetrazolium bromide (MTT) assay was employed to determine the concentration of each compound required to inhibit 50% of the cell viability (IC50), as summarized in Table 3.
(§2) The human colon adenocarcinoma cells—COLO 205 (CCL-222, doxorubicin-sensitive) and COLO 320/MDR-LRP (ATCC-CCL-220.1, multidrug-resistant, expressing P-gp)—were cultured in RPMI 1640 medium supplemented with 10% heat-inactivated fetal bovine serum, 2 mM of L-glutamine, 1 mM of sodium pyruvate, and 100 mM of HEPES. The non-cancerous human lung fibroblast cell line CCD-19Lu was maintained in Eagle’s Minimal Essential Medium (EMEM; containing 4.5 g/L of glucose) supplemented with a non-essential amino acid mixture, selected vitamins, and 10% heat-inactivated fetal bovine serum. All of the cell lines were detached using 0.25% trypsin and 0.02% EDTA for 5 min at 37 °C. The cell lines were obtained from LGC Promochem (Teddington, England).
(§3) Human colonic adenocarcinoma cell lines—doxorubicin-sensitive COLO 205 and multidrug-resistant COLO 320—as well as the non-cancerous human lung fibroblast cell line CCD-19Lu were used to evaluate the effects of the test compounds on cell proliferation. The assays were conducted in 96-well flat-bottomed microtiter plates. Stock solutions of the compounds were prepared in dimethyl sulfoxide (DMSO), with the final DMSO concentration kept below 1% in all samples. The compounds were diluted in 100 µL of the appropriate culture medium. Adherent cells were cultured in EMEM supplemented with 10% heat-inactivated fetal bovine serum and seeded into 96-well plates at a density of 6 × 10^3 cells per 100 µL per well. The cells were allowed to adhere for 24 h at 37 °C in a humidified incubator with 5% CO2. After incubation, the medium was removed and replaced with 100 µL of fresh medium. Serial dilutions of the compounds were prepared in separate plates and added to the cells, starting from a concentration of 100 µM with twofold serial dilutions (final concentration range: 100–0.19 µM). The cells were then incubated for 72 h at 37 °C. At the end of the incubation period, 20 µL of thiazolyl blue tetrazolium bromide (MTT) solution (5 mg/mL, Sigma) was added to each well. After 4 h of incubation at 37 °C, 100 µL of 10% sodium dodecyl sulfate (SDS) in 0.01 M HCl was added to solubilize the formazan crystals, and the plates were incubated overnight at 37 °C. Cell viability was assessed by measuring the optical density (OD) at 540/630 nm using a Multiscan EX ELISA reader (Thermo Labsystems, Cheshire, WA, USA).
(§4) The inhibitory concentration that reduced cell growth by 50% (IC50) was determined from the dose–response curves. The percent inhibition was calculated using the formula100 − ((OD_sample − OD_medium control)/(OD_cell control − OD_medium control)) × 100
(§5) Dose–response curves were generated by plotting the percent inhibition against the logarithm of the compound concentrations and fitted using Prism5 software (Version 6, GraphPad Software Inc., San Diego, CA, USA). The IC50 values were derived from four independent experiments conducted in parallel for each cell line and are reported as the mean values.
For orientation: Tetrazolium dyes change colour on reduction, which living cells bring about.

The test system of series [3] is COLO 205 (doxorubicin-sensitive) human colonic adenocarcinoma cells. Nature of the series: MTT antiproliferative assay, COLO 205. Format: cell-based. The conditions noted are these: read-out: IC50 (µM) ± SD COLO 205. As to the method:
as §1, §2, §3, §4, §5

Series [4] concerns HT22 cells (mouse hippocampal neuroblastoma cell line). More on the design: method as in doi:10.1007/s11101-018-9561-5, PMID 25794817. The conditions noted are these: 100 µM, 24 h; cited from earlier work.
Series [5] concerns COLO 320/MDR-LRP multidrug-resistant human colonic adenocarcinoma cells. Nature of the series: MTT antiproliferative assay, COLO 320. Format: cell-based. The following applies: COLO 320 (multidrug-resistant), read-out: IC50 (µM) ± SD COLO 320. As to the method: as §1, §2, §3, §4, §5
In series [6] the test system is HeLa cells. Further details: method as in PMID 33348712. The conditions noted are these: cited from earlier work.
For series [7], the system named is NCI 90 KB (human epidermoid nasopharynx carcinoma) cells. More on the design: method as in PMID 830696. The conditions noted are these: NCI 90 KB cells; cited from earlier work.
Series [8] deals with HepG-2. More on the design: method as in PMID 26072042. The conditions noted are these: cited from earlier work.
The test system of series [9] is SMMC-7721. Further details: method as in PMID 26072042. The following applies: cited from earlier work.
For series [10], the system named is MCF-7. Further details: method as in PMID 26072042. The conditions noted are these: cited from earlier work.
In series [11] the test system is HepG2 cells. The following applies: cited from earlier work.
On the set-up of series [12]: method as in PMID 31125040. The conditions noted are these: cited from earlier work.

The text below walks through data of publication PMC12386809, “Phenanthrene Monomers and Dimers from Juncus tenuis with Antiproliferative Activity and Synergistic Effect with Doxorubicin Against Human Colon Cancer Cell Lines” (International Journal of Molecular Sciences, 2025).

The term IC50 denotes the concentration needed to halve the response being measured.

≈ marks a conversion by molar mass, not a printed value. Like-named read-outs stand apart in the source and are kept apart here.

For the compound `C=Cc1c(C)c(O)cc2c1ccc1c(C)c(O)ccc12` [Compound 8, dehydrojuncuenin B], the “CI at ED50 (combination index)” value in series [1] came to 2.126. Moreover, in series [1], the Interaction entry was “antagonism (1.45 < CI < 3.3, antagonism)”. The IC50 in [2] was 22.8 ± 0.55 µM; in [3] (Homo sapiens, COLO 205, 72 h) it was 20.7 ± 0.47 µM; in [5] (Homo sapiens, COLO 320, 72 h), 17.9 ± 1.59 µM. For the same compound, the “decrease in MTT reduction” value in series [4] is 8.4%.

Take `C=Cc1cc(O)cc2c1-c1ccc(O)c(C)c1CC2` [Compound 10, effusol]: in series [1], the “CI at ED50 (combination index)” value amounted to 1.123. Further, the Interaction result in [1] is “slight antagonism”. Besides, the IC50 in series [6] is 2.3 µM; in series [2], 96 ± 2.66 µM; in [3] (72 h) it was 52.7 ± 1.85 µM; in series [3] (Homo sapiens, COLO 205, 72 h), 52.7 µM; in series [5] (72 h), 49.7 ± 2.12 µM; in [5] (Homo sapiens, COLO 320, 72 h), 49.7 µM. In series [4], the “decrease in MTT reduction” value is on record as 9.9%.

For `C=Cc1c(C)c(O)cc2c1-c1ccc(O)c(C)c1CC2` [Compound 11, juncusol], the “CI at ED50 (combination index)” value in series [1] turned out to be 0.582. Moreover, the Interaction entry in [1] was “synergism (0.3 < CI < 0.7, synergism)”. Also, the IC50 in [6] was 0.5 µM; in series [2], 44.4 ± 2.82 µM; in series [3] (Homo sapiens, COLO 205, 72 h), 31.9 ± 1.91 µM; in series [5] (Homo sapiens, COLO 320, 72 h) it was 36.2 ± 3.81 µM. Moreover, the ED50 in [7] is 0.3 µg/mL (≈ 1.13 µM). In addition, the “decrease in MTT reduction” value in series [4] is reported as 25.4%.

`C=Cc1cc(O)cc2c1-c1cc(-c3c(O)cc(C=C)c4c3ccc3c(C)c(O)ccc34)c(O)c(C)c1CC2` [effususin B]: the values for the IC50 in [8], in series [9] and in series [10] were 12.9 µM, 13.6 µM and 12.5 µM, respectively.

For `C=CC1=C(C)C(=O)C=C2c3ccc(O)c(C)c3CCC21O` (centres unmarked) [juncuenin D, reference compound], the “decrease in MTT reduction” value in series [4] is recorded as 23.7%.

For juncunol, the apoptotic cells entry in series [11] (HepG2, concentration-dependent (IC50 value ± 25%)) is recorded as “increase in the number of apoptotic cells”. In addition, in [11] (HepG2), the cell cycle arrest entry is given as “G0/G1 phase” and the Δψm entry is on record as “decrease in Δψm”. For the same compound, the IC50 in series [11] (HepG2 cells) is 18 µM. In series [12], the hemolytic properties entry is given as “no hemolytic properties”.
